Data published in ChEMBL document CHEMBL4507272 (2021).

How the values were obtained:
[1] = target: Cyclin-G-associated kinase (Homo sapiens) (UniProt O14976); details: Compound concentration 1000.0 nM
[2] = target: Mitogen-activated protein kinase 8 (Homo sapiens) (UniProt P45983); details: Compound concentration 1000.0 nM
[3] = target: Protein kinase C delta type (Homo sapiens) (UniProt Q05655); details: Compound concentration 1000.0 nM
[4] = target: Tyrosine-protein kinase Yes (Homo sapiens) (UniProt P07947); details: Compound concentration 1000.0 nM
[5] = system: Epidermal growth factor receptor (Homo sapiens), P00533 [UNDEFINED MUTATION]; details: Compound concentration 1000.0 nM
[6] = target: Misshapen-like kinase 1 (Homo sapiens) (UniProt Q8N4C8); details: Compound concentration 1000.0 nM
[7] = target: Serine/threonine-protein kinase ICK (Homo sapiens) (UniProt Q9UPZ9); details: Compound concentration 1000.0 nM
[8] = target: Non-receptor tyrosine-protein kinase TYK2 (Homo sapiens) (UniProt P29597); details: Compound concentration 1000.0 nM
[9] = target: Macrophage-stimulating protein receptor (Homo sapiens) (UniProt Q04912); details: Compound concentration 1000.0 nM
[10] = target: Serine/threonine-protein kinase Nek2 (Homo sapiens) (UniProt P51955); details: Compound concentration 1000.0 nM
[11] = target: Cyclin-dependent kinase-like 3 (Homo sapiens) (UniProt Q8IVW4); details: Compound concentration 1000.0 nM
[12] = target: TGF-beta receptor type-2 (Homo sapiens) (UniProt P37173); details: Compound concentration 1000.0 nM
[13] = target: Serine/threonine-protein kinase/endoribonuclease IRE1 (Homo sapiens) (UniProt O75460); details: Compound concentration 1000.0 nM
Sequence of Serine/threonine-protein kinase/endoribonuclease IRE1 (Homo sapiens) (O75460 19-977 limits assumed): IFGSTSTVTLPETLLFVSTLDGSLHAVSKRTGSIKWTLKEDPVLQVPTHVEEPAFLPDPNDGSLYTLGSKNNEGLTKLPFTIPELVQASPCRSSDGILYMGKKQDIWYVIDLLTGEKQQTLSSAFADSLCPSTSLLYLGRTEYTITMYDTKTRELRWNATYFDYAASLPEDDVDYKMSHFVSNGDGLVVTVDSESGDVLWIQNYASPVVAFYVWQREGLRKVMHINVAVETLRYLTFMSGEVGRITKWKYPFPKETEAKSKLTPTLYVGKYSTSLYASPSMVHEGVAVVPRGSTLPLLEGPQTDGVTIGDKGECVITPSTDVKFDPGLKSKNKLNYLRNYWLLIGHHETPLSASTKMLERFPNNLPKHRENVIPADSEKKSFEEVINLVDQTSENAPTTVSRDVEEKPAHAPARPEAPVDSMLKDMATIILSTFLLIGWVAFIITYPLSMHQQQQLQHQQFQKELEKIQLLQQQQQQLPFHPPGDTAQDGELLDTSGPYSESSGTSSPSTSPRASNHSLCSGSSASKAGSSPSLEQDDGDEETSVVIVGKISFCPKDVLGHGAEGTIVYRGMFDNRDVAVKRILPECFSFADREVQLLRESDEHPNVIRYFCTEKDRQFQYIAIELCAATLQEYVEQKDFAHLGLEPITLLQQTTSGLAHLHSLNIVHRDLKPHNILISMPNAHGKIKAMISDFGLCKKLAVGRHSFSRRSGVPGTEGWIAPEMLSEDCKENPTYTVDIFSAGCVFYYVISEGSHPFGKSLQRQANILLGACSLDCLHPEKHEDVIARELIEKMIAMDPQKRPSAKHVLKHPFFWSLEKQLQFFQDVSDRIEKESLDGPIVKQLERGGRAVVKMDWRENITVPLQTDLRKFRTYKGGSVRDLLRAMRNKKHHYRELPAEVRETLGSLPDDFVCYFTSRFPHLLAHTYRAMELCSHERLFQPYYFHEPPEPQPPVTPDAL

[14] = target: G protein-coupled receptor kinase 3 (Homo sapiens) (UniProt P35626); details: Compound concentration 1000.0 nM
[15] = target: Tyrosine-protein kinase Blk (Homo sapiens) (UniProt P51451); details: Compound concentration 1000.0 nM
[16] = target: Cyclin-dependent kinase 4 (Homo sapiens) (UniProt P11802); details: Compound concentration 1000.0 nM
Sequence of Cyclin-dependent kinase 4 (Homo sapiens) (P11802 whole entry): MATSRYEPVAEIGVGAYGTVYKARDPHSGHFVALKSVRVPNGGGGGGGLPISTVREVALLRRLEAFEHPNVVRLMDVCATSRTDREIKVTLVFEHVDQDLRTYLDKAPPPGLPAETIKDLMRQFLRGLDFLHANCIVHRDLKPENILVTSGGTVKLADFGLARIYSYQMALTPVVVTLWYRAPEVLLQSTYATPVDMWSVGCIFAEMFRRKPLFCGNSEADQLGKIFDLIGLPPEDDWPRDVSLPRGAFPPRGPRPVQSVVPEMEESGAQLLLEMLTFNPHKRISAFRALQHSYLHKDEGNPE

[17] = target: Mitogen-activated protein kinase 7 (Homo sapiens) (UniProt Q13164); details: Compound concentration 1000.0 nM
[18] = target: Serine/threonine-protein kinase 25 (Homo sapiens) (UniProt O00506); details: Compound concentration 1000.0 nM
[19] = target: NT-3 growth factor receptor (Homo sapiens) (UniProt Q16288); details: Compound concentration 1000.0 nM
[20] = target: Phosphatidylinositol 4,5-bisphosphate 3-kinase catalytic subunit alpha isoform (Homo sapiens) (UniProt P42336); details: Compound concentration 1000.0 nM
[21] = target: Dual specificity tyrosine-phosphorylation-regulated kinase 1A (Homo sapiens) (UniProt Q13627); details: Compound concentration 1000.0 nM
[22] = system: Tyrosine-protein kinase ABL1 (Homo sapiens), P00519 [E255K]; details: Compound concentration 1000.0 nM
[23] = target: Fibroblast growth factor receptor 4 (Homo sapiens) (UniProt P22455); details: Compound concentration 1000.0 nM
[24] = target: 5-hydroxytryptamine receptor 3A (Homo sapiens) (UniProt P46098); details: Compound concentration 10.0 uM
[25] = target: Leukocyte tyrosine kinase receptor (Homo sapiens) (UniProt P29376); details: Compound concentration 1000.0 nM
[26] = target: 3-phosphoinositide-dependent protein kinase 1 (Homo sapiens) (UniProt O15530); details: Compound concentration 1000.0 nM
[27] = target: Sodium-dependent dopamine transporter (Homo sapiens) (UniProt Q01959); details: Compound concentration 10.0 uM
[28] = target: Tyrosine-protein kinase CSK (Homo sapiens) (UniProt P41240); details: Compound concentration 1000.0 nM
[29] = target: Dual specificity mitogen-activated protein kinase kinase 2 (Homo sapiens) (UniProt P36507); details: Compound concentration 1000.0 nM
Sequence of Dual specificity mitogen-activated protein kinase kinase 2 (Homo sapiens) (P36507 whole entry): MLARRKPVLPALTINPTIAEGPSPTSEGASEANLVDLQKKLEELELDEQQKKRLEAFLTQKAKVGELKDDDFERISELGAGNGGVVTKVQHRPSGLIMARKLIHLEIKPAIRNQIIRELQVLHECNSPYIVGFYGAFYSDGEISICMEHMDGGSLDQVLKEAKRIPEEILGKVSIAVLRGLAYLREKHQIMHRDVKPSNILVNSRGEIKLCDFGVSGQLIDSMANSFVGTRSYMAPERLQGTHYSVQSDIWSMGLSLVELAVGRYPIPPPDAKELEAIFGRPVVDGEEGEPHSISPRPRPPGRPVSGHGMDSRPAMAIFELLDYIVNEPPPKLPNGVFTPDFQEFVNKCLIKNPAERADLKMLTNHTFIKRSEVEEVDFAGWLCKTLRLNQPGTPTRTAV

[30] = system: Mast/stem cell growth factor receptor Kit (Homo sapiens), P10721 [D816H]; details: Compound concentration 1000.0 nM
[31] = target: Atypical kinase COQ8A, mitochondrial (Homo sapiens) (UniProt Q8NI60); details: Compound concentration 1000.0 nM
[32] = target: Serine/threonine-protein kinase D1 (Homo sapiens) (UniProt Q15139); details: Compound concentration 1000.0 nM
[33] = target: Receptor tyrosine-protein kinase erbB-2 (Homo sapiens) (UniProt P04626); details: Compound concentration 1000.0 nM
[34] = target: Serine/threonine-protein kinase MRCK alpha (Homo sapiens) (UniProt Q5VT25); details: Compound concentration 1000.0 nM
Sequence of Serine/threonine-protein kinase MRCK alpha (Homo sapiens) (Q5VT25 whole entry): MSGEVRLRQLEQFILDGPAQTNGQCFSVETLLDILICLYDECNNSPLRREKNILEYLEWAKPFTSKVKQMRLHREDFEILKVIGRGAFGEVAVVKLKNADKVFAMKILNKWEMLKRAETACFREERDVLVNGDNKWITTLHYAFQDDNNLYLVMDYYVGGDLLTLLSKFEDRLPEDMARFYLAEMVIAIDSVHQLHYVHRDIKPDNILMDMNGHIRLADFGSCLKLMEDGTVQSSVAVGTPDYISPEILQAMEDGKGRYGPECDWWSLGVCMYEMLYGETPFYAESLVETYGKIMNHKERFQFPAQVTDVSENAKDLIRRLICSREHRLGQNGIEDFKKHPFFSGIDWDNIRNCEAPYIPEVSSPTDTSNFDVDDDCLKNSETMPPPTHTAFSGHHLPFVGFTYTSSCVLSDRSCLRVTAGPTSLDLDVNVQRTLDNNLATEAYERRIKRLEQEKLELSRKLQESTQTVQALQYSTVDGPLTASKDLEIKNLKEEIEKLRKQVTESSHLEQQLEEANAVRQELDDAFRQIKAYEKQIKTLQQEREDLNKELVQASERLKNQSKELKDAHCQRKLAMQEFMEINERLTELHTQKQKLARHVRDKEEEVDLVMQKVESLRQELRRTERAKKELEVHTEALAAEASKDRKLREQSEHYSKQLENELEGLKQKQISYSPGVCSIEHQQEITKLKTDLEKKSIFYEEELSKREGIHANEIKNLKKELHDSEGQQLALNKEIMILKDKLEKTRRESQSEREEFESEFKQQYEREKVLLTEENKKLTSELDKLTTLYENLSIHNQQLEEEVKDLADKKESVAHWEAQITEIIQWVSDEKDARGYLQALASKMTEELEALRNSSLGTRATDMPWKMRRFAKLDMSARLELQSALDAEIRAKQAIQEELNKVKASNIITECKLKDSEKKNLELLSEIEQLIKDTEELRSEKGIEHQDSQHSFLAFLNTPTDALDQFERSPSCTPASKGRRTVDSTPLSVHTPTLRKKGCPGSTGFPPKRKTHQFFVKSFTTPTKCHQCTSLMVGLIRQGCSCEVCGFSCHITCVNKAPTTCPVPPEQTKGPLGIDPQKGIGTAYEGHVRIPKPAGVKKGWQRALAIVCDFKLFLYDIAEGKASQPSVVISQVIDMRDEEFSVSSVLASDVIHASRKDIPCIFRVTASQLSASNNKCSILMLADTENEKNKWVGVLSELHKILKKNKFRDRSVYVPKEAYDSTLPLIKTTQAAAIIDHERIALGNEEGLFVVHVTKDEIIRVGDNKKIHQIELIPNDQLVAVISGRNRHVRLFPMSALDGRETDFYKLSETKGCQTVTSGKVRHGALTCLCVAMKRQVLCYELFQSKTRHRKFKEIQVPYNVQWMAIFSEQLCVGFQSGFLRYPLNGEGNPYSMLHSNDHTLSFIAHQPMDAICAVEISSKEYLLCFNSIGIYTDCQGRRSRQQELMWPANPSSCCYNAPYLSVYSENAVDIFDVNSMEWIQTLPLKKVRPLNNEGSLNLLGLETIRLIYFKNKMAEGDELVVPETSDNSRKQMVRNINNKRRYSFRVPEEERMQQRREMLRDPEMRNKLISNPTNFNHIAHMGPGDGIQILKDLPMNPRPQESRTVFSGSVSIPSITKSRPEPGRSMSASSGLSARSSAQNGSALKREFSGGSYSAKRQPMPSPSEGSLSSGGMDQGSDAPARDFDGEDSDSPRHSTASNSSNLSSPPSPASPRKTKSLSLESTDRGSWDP

[35] = target: Cyclin-dependent kinase 15 (Homo sapiens) (UniProt Q96Q40); details: Compound concentration 1000.0 nM
[36] = system: Tyrosine-protein kinase ABL1 (Homo sapiens), P00519 [F317L]; details: Compound concentration 1000.0 nM
[37] = target: Serine/threonine-protein kinase 10 (Homo sapiens) (UniProt O94804); details: Compound concentration 1000.0 nM
[38] = target: Serine/threonine-protein kinase RIO1 (Homo sapiens) (UniProt Q9BRS2); details: Compound concentration 1000.0 nM
[39] = target: Cyclin-dependent kinase 11A (Homo sapiens) (UniProt Q9UQ88); details: Compound concentration 1000.0 nM
[40] = target: Calcium/calmodulin-dependent protein kinase type 1G (Homo sapiens) (UniProt Q96NX5); details: Compound concentration 1000.0 nM
[41] = target: Activin receptor type-1 (Homo sapiens) (UniProt Q04771); details: Compound concentration 1000.0 nM
[42] = target: Serine/threonine-protein kinase PAK 1 (Homo sapiens) (UniProt Q13153); details: Compound concentration 1000.0 nM
[43] = target: G protein-coupled receptor kinase 4 (Homo sapiens) (UniProt P32298); details: Compound concentration 1000.0 nM
Sequence of G protein-coupled receptor kinase 4 (Homo sapiens) (P32298 whole entry, looked up): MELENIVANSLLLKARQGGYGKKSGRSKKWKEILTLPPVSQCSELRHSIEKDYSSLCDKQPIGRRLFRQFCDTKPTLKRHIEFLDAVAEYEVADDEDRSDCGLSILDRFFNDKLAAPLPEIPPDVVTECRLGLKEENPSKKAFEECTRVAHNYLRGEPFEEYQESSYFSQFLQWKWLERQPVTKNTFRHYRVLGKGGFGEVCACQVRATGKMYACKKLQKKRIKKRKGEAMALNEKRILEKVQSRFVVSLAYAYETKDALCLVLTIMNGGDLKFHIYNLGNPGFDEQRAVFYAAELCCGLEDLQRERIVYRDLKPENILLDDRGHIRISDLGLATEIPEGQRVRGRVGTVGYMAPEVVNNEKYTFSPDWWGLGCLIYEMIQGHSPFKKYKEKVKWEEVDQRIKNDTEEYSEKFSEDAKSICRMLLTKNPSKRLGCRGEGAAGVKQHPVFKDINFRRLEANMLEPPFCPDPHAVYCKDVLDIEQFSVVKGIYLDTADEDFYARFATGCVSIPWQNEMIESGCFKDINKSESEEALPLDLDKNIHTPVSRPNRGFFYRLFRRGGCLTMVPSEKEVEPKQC

[44] = target: Activated CDC42 kinase 1 (Homo sapiens) (UniProt Q07912); details: Compound concentration 1000.0 nM
Sequence of Activated CDC42 kinase 1 (Homo sapiens) (Q07912 whole entry, looked up): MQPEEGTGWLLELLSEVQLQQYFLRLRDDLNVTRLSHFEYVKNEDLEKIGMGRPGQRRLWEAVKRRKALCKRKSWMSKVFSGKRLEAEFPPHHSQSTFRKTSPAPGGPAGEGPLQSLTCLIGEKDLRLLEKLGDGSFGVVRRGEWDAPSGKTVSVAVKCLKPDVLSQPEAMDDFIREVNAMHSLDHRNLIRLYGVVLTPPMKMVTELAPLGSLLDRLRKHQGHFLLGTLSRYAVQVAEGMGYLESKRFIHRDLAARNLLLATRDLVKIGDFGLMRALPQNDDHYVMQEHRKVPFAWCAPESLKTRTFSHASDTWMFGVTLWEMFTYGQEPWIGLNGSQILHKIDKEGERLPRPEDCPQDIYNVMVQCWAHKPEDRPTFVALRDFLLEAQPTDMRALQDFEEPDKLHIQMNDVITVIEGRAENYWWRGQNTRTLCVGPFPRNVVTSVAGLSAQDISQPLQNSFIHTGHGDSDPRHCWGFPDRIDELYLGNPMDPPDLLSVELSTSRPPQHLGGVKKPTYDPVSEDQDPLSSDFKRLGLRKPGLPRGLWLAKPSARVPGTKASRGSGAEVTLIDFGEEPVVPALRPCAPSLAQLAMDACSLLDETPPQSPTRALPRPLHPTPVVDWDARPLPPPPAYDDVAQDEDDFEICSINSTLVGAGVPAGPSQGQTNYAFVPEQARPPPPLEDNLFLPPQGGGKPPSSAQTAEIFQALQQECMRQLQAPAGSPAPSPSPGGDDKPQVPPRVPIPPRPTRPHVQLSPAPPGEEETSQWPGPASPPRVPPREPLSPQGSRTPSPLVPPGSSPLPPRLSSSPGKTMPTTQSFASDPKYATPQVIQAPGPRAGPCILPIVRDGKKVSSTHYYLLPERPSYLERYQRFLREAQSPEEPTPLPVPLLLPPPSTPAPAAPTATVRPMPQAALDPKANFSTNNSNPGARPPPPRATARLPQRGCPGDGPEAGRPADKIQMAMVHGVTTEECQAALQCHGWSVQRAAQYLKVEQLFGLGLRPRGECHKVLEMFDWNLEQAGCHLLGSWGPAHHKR

[45] = target: Beta-adrenergic receptor kinase 1 (Homo sapiens) (UniProt P25098); details: Compound concentration 1000.0 nM
[46] = target: Ephrin type-B receptor 2 (Homo sapiens) (UniProt P29323); details: Compound concentration 1000.0 nM

CC(=O)C1=C(C)N(c2cccc(C(F)(F)F)c2)C(=O)N[C@@H]1c1ccc(C#N)nc1 [BAY-678]
inactive: residual activity [1] 97.2% | residual activity [2] 100% | residual activity [3] 100% | residual activity [4] 81.1% | residual activity [5] 80.3% | residual activity [6] 100% | residual activity [7] 100% | residual activity [8] 91.3% | residual activity [9] 81.1% | residual activity [10] 100% | residual activity [11] 98.5% | residual activity [12] 67.8% | residual activity [13] 100% | residual activity [14] 92.6% | residual activity [15] 95.8% | residual activity [16] 100% | residual activity [17] 100% | residual activity [18] 89.9% | residual activity [19] 100% | residual activity [20] 100% | residual activity [21] 100% | residual activity [22] 75% | residual activity [23] 100% | inhibition [24] -7.63% | residual activity [25] 92.6% | residual activity [26] 93.4% | inhibition [27] -0.342% | residual activity [28] 90% | residual activity [29] 84.2% | residual activity [30] 100% | residual activity [31] 100% | residual activity [32] 95.7% | residual activity [33] 95.6% | residual activity [34] 100% | residual activity [35] 100% | residual activity [36] 100% | residual activity [37] 84.5% | residual activity [38] 87.5% | residual activity [39] 95.7% | residual activity [40] 100% | residual activity [41] 74.5% | residual activity [42] 91.2% | residual activity [43] 100% | residual activity [44] 78.6% | residual activity [45] 89% | residual activity [46] 100%
